Assay results: US20150087677A1, “METHODS FOR TREATING VESTIBULOTOXICTY” (priority 2012, published 2015)

Key:
[1] = system: cisplatin induced vestibulotoxicity; experiment: Induced deficits of vestibular behavior after transtympanic cisplatin (vestibular deficit score); type: in vivo, rat; details: for time after the lesion at which protective effects are first observed: effects persist over the following days
Description: Vestibular deficit associated behaviors were scored on a scale from 0 to 4, respectively ranging from normal behavior (rating 0) to maximal identified vestibular impairment (rating 4). […] Rats were scored for vestibular deficits after transtympanic injection of cisplatin (50 μl, 2 mg/ml) and, evaluated from 4 to 336 hrs after the injection (FIG. 4). Scores were expressed as mean (±sem). For preventive treatment, injection of cimetidine (i.p., 12 mg/kg) was injected 4 hours before the transtympanic injection of cisplatin. Sham animals received saline (i.p) 4 hours before the lesion. To focus on the preventive action of transtympanic injection of the compounds of the invention in the first 72 hours, ototoxicity is induced by a transtympanic injection (50 μl) of cisplatin (2 mg/ml in saline; 6.7 mM) and a determined ratio of corresponding molar dose of compounds are premixed and injected transtympanically with cisplatin. For example, for the dose ratio 1/2 of compound/cisplatin, a solution of 3.5 mM of compound of interest in addition to the 6.7 mM of cisplatin in saline is prepared and, 50 μl of this mixed saline solution is injected transtympanically at TO. Different control animals are run in parallel: saline only, cisplatin (6.7 mM) only to control the initial lesion, and the compounds of interest alone at different doses in saline to control potential ototoxicity of the compound independently of cisplatin, are with cisplatin. […] For transtympanic experiments, rats were scored for vestibular deficits just before the transtympanic injection, TO and, evaluated at 24, 48 & 72 hours after the injection (FIGS. 5 to 11). Scores were expressed as mean (±sem).

vestibular hair cells = type: cell-based, rat; details: co-treatment with cimetidine (1000 μM) and cisplatin for 48 hrs, FIG. 3
Description: Vestibular end organs were aseptically removed from animals. Explants composed of sensory and nonsensory epithelia were placed on 5 μl of growth factor-reduced Matrigel on laminin (10 μg/ml)-coated glass coverslips. These preparations were incubated for 30 min at 37° C. in a 95%/5% O2/CO2 atmosphere at saturating moisture. Explants were then cultured in DMEM and F12 (50%/50% v/v) media supplemented with N2 mixture (2%). The medium was renewed every 4 d. […] Treated cultures were then fixed with PAF 4% for 1 hr. Labeling of hair bundles was processed using Alex488-conjugated phalloidin (1:700) overnight. After rinsing with PBS, cultures were mounted in Moviol (Calbiochem). Labelling was observed and image digitalized using an apotome microscope (Zeiss). Hair bundles per utricle were quantified using ImageJ software. Statistical analysis was processed with SigmaPlot software (Systat Software). Final image processing was performed with Adobe Photoshop software.

[2] = transtympanic injection premixed with cisplatin, rats, FIGS. 5 to 11
[3] = transtympanic injection, FIGS. 5 to 11

Structure (SMILES)	effect on vestibular toxicity and behavioral deficits induced by cisplatin ([1]; adult rats, systemic (i.p., 12 mg/kg) pretreatment 4 hrs before transtympanic cisplatin, FIG. 4)	time after the lesion at which protective effects are first observed ([1]; systemic (i.p.) pretreatment t-4 hrs, FIG. 4)	effect on vestibular toxicity and behavioral deficits induced by cisplatin [1, 2]	time after the lesion at which protective effects are first observed [1, 3]	effect on cisplatin-induced vestibular hair cell loss in vitro (vestibular hair cells)
CN/C(=N/CCSCc1nc[nH]c1C)NC#N [cimetidine]	reduces the vestibular toxicity and behavioral deficits	48 h	reduces the vestibular toxicity and behavioral deficits	24 h	reduces vestibular hair cell loss
Cc1c(OCC(F)(F)F)ccnc1C[S+]([O-])c1nc2ccccc2[nH]1 (stereo not shown) [lansoprazole]	–	–	reduces the vestibular toxicity and behavioral deficits	24 h	–
CNC(=C[N+](=O)[O-])NCCSCc1csc(CN(C)C)n1 [nizatidine]	–	–	reduces the vestibular toxicity and behavioral deficits	24 h	–
COc1ccc2[nH]c([S+]([O-])Cc3ncc(C)c(OC)c3C)nc2c1 (stereo not shown) [omeprazole]	–	–	–	24 h	–
COc1ccnc(C[S+]([O-])c2nc3ccc(OC(F)F)cc3[nH]2)c1OC (stereo not shown) [pantoprazole]	–	–	–	24 h	–
COCCCOc1ccnc(C[S+]([O-])c2nc3ccccc3[nH]2)c1C (stereo not shown) [rabeprazole]	–	–	–	24 h	–
CNC(=C[N+](=O)[O-])NCCSCc1ccc(CN(C)C)o1 [ranitidine]	–	–	–	24 h	–
